Assay results published in PMC4787807 (Nucleic Acids Research, 2015).

Biological target: EAV nsp9 (Equine arteritis virus Bucyrus, UniProt P19811)
Assay: covalent labelling, tryptic digest and nano-LC-MS/MS

Chain of EAV nsp9 (P19811 1678-2370): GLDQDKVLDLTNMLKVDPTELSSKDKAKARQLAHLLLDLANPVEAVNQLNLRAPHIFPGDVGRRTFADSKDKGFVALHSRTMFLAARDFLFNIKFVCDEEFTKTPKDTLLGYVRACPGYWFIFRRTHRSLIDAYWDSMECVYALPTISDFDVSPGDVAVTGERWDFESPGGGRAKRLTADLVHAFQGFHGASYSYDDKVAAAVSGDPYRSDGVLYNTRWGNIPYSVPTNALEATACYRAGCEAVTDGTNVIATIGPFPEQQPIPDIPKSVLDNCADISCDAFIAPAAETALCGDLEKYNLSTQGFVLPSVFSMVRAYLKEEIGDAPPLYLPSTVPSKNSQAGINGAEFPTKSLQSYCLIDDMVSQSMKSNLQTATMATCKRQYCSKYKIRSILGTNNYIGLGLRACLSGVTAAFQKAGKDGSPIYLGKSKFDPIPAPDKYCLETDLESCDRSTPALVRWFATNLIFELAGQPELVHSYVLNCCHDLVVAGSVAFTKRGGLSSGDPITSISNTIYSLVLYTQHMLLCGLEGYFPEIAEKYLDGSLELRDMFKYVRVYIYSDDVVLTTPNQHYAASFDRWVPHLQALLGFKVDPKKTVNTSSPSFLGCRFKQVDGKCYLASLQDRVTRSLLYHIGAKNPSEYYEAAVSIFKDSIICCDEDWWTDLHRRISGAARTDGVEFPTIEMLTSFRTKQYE

Nc1nc2c(ncn2[C@@H]2O[C@H](COC(=O)c3ccc(S(=O)(=O)F)cc3)[C@@H](O)[C@H]2O)c(=O)[nH]1 [FSBG, 5′-(4-fluorosulfonylbenzoyl)guanosine]
covalent labelling, tryptic digest and nano-LC-MS/MS: seven modified peptides representing five distinct nsp9 regions could be assigned
